Source: US7741354B2, “Inhibitors of glutaminyl cyclase” (Probiodrug AG, priority 2006, dated 2010)

biological target: hQC (Homo sapiens, UniProt Q16769); experiment: Fluorometric (fluorescent) assay of hQC inhibition, IC50; assay type: biochemical; conditions: hQC inhibition; read-out: IC50
Method in brief: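 Two coupled fluorometric formats at 30° C, pH 8.0 Tris/HCl with EDTA: H-Gln-βNA at 0.2 mM read at 320/410 nm, or H-Gln-AMC at varied levels read at 380/460 nm, each started by adding QC.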

Chain of hQC (Q16769 29-361): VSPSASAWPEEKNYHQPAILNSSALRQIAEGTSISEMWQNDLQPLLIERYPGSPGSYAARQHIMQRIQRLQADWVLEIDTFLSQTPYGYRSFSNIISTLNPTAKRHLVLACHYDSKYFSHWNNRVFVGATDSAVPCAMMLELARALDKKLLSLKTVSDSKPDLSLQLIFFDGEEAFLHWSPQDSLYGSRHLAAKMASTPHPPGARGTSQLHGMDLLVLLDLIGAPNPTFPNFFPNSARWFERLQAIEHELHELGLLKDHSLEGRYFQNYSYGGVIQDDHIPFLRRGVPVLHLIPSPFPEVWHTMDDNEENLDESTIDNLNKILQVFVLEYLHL

IC50 [µM]	Compound
6.7	c1nc2cc(NC(c3ccc4c(c3)OCO4)c3nnnn3CC3CCCO3)ccc2[nH]1 (stereo not drawn) [compound 118]
9.4	O=c1c(C(Nc2ccc3[nH]cnc3c2)c2nnnn2CC2CCCO2)coc2ccccc12 (stereo not drawn) [compound 159, 3-{(1H-Benzoimidazol-5-ylamino)-[1-(tetrahydro-furan-2-ylmethyl)-1H-tetrazol-5-yl]-mthyl}-chromen-4-one]
3.1	COc1ccccc1C(Nc1ccc2[nH]cnc2c1)c1nnnn1Cc1ccccc1Cl (stereo not drawn) [compound 153]
2.2	COc1ccc(C(Nc2ccc3[nH]cnc3c2)c2nnnn2-c2ccccc2OCc2ccccc2)cc1 (stereo not drawn) [compound 210, (1H-Benzoimidazol-5-yl)-[[1-(2-benzyloxy-phenyl)-1H-tetrazol-5-yl]-(4-methoxy-phenyl)-methyl]-amine]
8.5	Clc1ccccc1Cn1nnnc1C(Nc1ccc2[nH]cnc2c1)c1cccnc1 (stereo not drawn) [compound 135, (1H-Benzoimidazol-5-yl)-{[1-(2-chloro-benzyl)-1H-tetrazol-5-yl]-pyridin-3-yl-methyl}-amine]
4.9	O=c1c(C(Nc2ccc3[nH]cnc3c2)c2nnnn2CCc2cccs2)coc2ccccc12 (stereo not drawn) [compound 122, 3-{(1H-Benzoimidazol-5-ylamino)-[1-(2-thiophen-2-yl-ethyl)-1H-tetrazol-5-yl]-methyl}-chromen-4-one]
1.3	O=[N+]([O-])c1cc(C(Nc2ccc3[nH]cnc3c2)c2nnnn2Cc2ccccc2Cl)ccc1Cl (stereo not drawn) [compound 148, (1H-Benzoimidazol-5-yl)-[[1-(2-chloro-benzyl)-1H-tetrazol-5-yl]-(4-chloro-3-nitro-phenyl)-methyl]-amine]
8.5	C/C=C/C=C/C(Nc1ccc2[nH]cnc2c1)c1nnnn1Cc1cccnc1 (stereo not drawn) [compound 173, (1H-Benzoimidazol-5-yl)-[(2E,4E)-1-(1-pyridin-3-ylmethyl-1H-tetrazol-5-yl)-hexa-2,4-dienyl]-amine]
2.2	O=C(Cn1nnnc1C(Nc1ccc2[nH]cnc2c1)c1ccc(Br)cc1)N1CCc2ccccc2C1 (stereo not drawn) [compound 199, 2-{5-[(1H-Benzoimidazol-5-ylamino)-(4-bromo-phenyl)-methyl]-tetrazol-1-yl}-1-(3,4-dihydro-1H-isoquinolin-2-yl)-ethanone]
4	CC(C)(C)c1ccc(-n2nnnc2C(Nc2ccc3[nH]cnc3c2)c2ccc3nsnc3c2)cc1 (stereo not drawn) [compound 117]
2.2	Brc1cc(Br)cc(C(Nc2ccc3[nH]cnc3c2)c2nnnn2CCc2cccs2)c1 (stereo not drawn) [compound 177, (1H-Benzoimidazol-5-yl)-{(3,5-dibromo-phenyl)-[1-(2-thiophen-2-yl-ethyl)-1H-tetrazol-5-yl]-methyl}-amine]
6.7	CCOC(=O)C1CCCCC1n1nnnc1C(CC(C)c1ccc(C)o1)Nc1ccc2[nH]cnc2c1 (stereo not drawn) [compound 202]
2.2	O=[N+]([O-])c1cc(C(Nc2ccc3[nH]cnc3c2)c2nnnn2Cc2ccc(Cl)cc2)ccc1Cl (stereo not drawn) [compound 197, (1H-Benzoimidazol-5-yl)-[[1-(4-chloro-benzyl)-1H-tetrazol-5-yl]-(4-chloro-3-nitro-phenyl)-methyl]-amine]
2.2	CC(C)(C)OC(=O)Cn1nnnc1C(Nc1ccc2[nH]cnc2c1)c1ccc2c(c1)OCO2 (stereo not drawn) [compound 119, {5-[Benzo[1,3]dioxol-5-yl-(1H-benzoimidazol-5-ylamino)-methyl]-tetrazol-1-yl}-acetic acid tert-butyl ester]
4	c1ccc(Oc2ccc(-n3nnnc3C(Nc3ccc4[nH]cnc4c3)c3ccc4c(c3)OCO4)cc2)cc1 (stereo not drawn) [compound 139, {Benzo[1,3]dioxol-5-yl-[1-(4-phenoxy-phenyl)-1H-tetrazol-5-yl]-methyl}-(1H-benzoimidazol-5-yl)-amine]

same assay, conditions: purified compound from preparative synthesis; fluorescent assay; read-out: IC50 hQC

IC50 [µM]	Compound
2.88	CN(C)CCn1nnnc1C(NCCCn1ccnc1)C1CCC=CO1 (stereo not drawn) [Compound 38, {(3,4-Dihydro-2H-pyran-2-yl)-[1-(2-dimethylamino-ethyl)-1H-tetrazol-5-yl]-methyl}-(3-imidazol-1-yl-propyl)-amine]

same assay, conditions: read-out: IC50

IC50 [µM]	Compound
3.1	CCCCn1nnnc1C(NCCCn1ccnc1)c1ccc2ccccc2n1 (stereo not drawn) [compound 22, [(1-Butyl-1H-tetrazol-5-yl)-quinolin-2-yl-methyl]-(3-imidazol-1-yl-propyl)-amine]
7.6	COc1cccc(C(Nc2ccc3[nH]cnc3c2)c2nnnn2CC2CCCO2)c1 (stereo not drawn) [compound 89, (1H-Benzoimidazol-5-yl)-{(3-methoxy-phenyl)-[1-(tetrahydro-furan-2-ylmethyl)-1H-tetrazol-5-yl]-methyl}-amine]
0.4	COC(=O)Cn1nnnc1C(NCCCn1ccnc1)C1CC1 (stereo not drawn) [compound 57, {5-[Cyclopropyl-(3-imidazol-1-yl-propylamino)-methyl]-tetrazol-1-yl}-acetic methyl ester]
4.9	COC(=O)Cn1nnnc1C(NCCCn1ccnc1)[C@@H]1CCC=CO1 (stereo partly drawn) [compound 56, {5-[(S)-3,4-Dihydro-2H-pyran-2-yl-(3-imidazol-1-yl-propylamino)-methyl]-tetrazol-1-yl}-acetic methyl ester]
3.1	COCCn1nnnc1C(NCCCn1ccnc1)c1ccc2cccc(O)c2n1 (stereo not drawn) [compound 40, 2-{(3-Imidazol-1-yl-propylamino)-[1-(2-methoxy-ethyl)-1H-tetrazol-5-yl]-methyl}-quinolin-8-ol]
9.4	C=CCn1nnnc1C(NCCCn1ccnc1)c1cc(C)c(C)cc1C (stereo not drawn) [compound 48, [(1-Allyl-1H-tetrazol-5-yl)-(2,4,5-trimethyl-phenyl)-methyl]-(3-imidazol-1-yl-propyl)-amine]
4	COCCCn1nnnc1C(NCCCn1ccnc1)c1cc(O)ccc1C (stereo not drawn) [compound 33, 3-{(3-Imidazol-1-yl-propylamino)-[1-(3-methoxy-propyl)-1H-tetrazol-5-yl]-methyl}-4-methyl-phenol]
4	Cc1cc(C)c(C(NCCCn2ccnc2)c2nnnn2C[C@@H]2CCCO2)cc1C (stereo partly drawn) [compound 17, (3-Imidazol-1-yl-propyl)-[{1-[(S)-1-(tetrahydro-furan-2-yl)methyl]-1H-tetrazol-5-yl}-(2,4,5-trimethyl-phenyl)-methyl]-amine]
0.4	CN(C)CCn1nnnc1C(NCCCn1ccnc1)C1CCC=CO1 (stereo not drawn) [Compound 38, {(3,4-Dihydro-2H-pyran-2-yl)-[1-(2-dimethylamino-ethyl)-1H-tetrazol-5-yl]-methyl}-(3-imidazol-1-yl-propyl)-amine]
2.2	Clc1ccc(Cn2nnnc2C(NCCCn2ccnc2)c2ccc(Cl)c(Cl)c2)cc1 (stereo not drawn) [compound 1, [[1-(4-Chloro-benzyl)-1H-tetrazol-5-yl]-(3,4-dichloro-phenyl)-methyl]-(3-imidazol-1-yl-propyl)-amine]
1.3	Cc1ccc(O)c(C(NCCCn2ccnc2)c2nnnn2C(C)(C)C)c1 (stereo not drawn) [compound 59, 2-[(1-tert-Butyl-1H-tetrazol-5-yl)-(3-imidazol-1-yl-propylamino)-methyl]-4-methyl-phenol]
5.8	Cc1ccc(C(C)CC(Nc2ccc3[nH]cnc3c2)c2nnnn2CC2CCCO2)o1 (stereo not drawn) [compound 111, (1H-Benzoimidazol-5-yl)-{3-(5-methyl-furan-2-yl)-1-[1-(tetrahydro-furan-2-ylmethyl)-1H-tetrazol-5-yl]-butyl}-amine]
4.9	COCCn1nnnc1C(NCCCn1ccnc1)c1ccc2[nH]ccc2c1 (stereo not drawn) [compound 41, (3-Imidazol-1-yl-propyl)-{(1H-indol-5-yl)-[1-(2-methoxy-ethyl)-1H-tetrazol-5-yl]-methyl}-amine]
4.9	CC(C)(C)Cn1nnnc1C(NCCCn1ccnc1)c1ccc2[nH]ccc2c1 (stereo not drawn) [compound 65, [[1-(2,2-Dimethyl-propyl)-1H-tetrazol-5-yl]-(1H-indol-5-yl)-methyl]-(3-imidazol-1-yl-propyl)-amine]
